# Reference: PubChem BioAssay (NCI)
#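 1) Cells in 96-well plates. 2) Compound, 48 h, 5 concentrations. 3) Linear interpolation between surrounding doses. 4) Unreached endpoint = highest concentration. Here, GI50 denotes the concentration required for 50% inhibition of growth. The concentration for full growth arrest is given as TGI.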
# Columns and labels:
# Experiment in all cases: NCI tumour cell line growth inhibition, 48 h
# IGROV1 ovarian = tested on: IGROV1 ovarian
# CCRF-CEM leukemia = tested on: CCRF-CEM leukemia
# TK-10 renal = tested on: TK-10 renal
# T-47D breast = tested on: T-47D breast
# OVCAR-8 ovarian = tested on: OVCAR-8 ovarian
# LOX IMVI melanoma = tested on: LOX IMVI melanoma
# A549 NSCLC = tested on: A549 NSCLC
# HCC-2998 colon = tested on: HCC-2998 colon
# UO-31 renal = tested on: UO-31 renal
# KM12 colon = tested on: KM12 colon
# NCI-H23 lung = tested on: NCI-H23 lung
# CAKI-1 renal = tested on: CAKI-1 renal
# SK-OV-3 ovarian = tested on: SK-OV-3 ovarian
# EKVX NSCLC = tested on: EKVX NSCLC
# U251 CNS = tested on: U251 CNS
# HCT-15 colon = tested on: HCT-15 colon
# NCI/ADR-RES ovarian = tested on: NCI/ADR-RES ovarian
# UACC-257 melanoma = tested on: UACC-257 melanoma
# HT29 colon = tested on: HT29 colon
# SR leukemia = tested on: SR leukemia
# NCI-H226 lung = tested on: NCI-H226 lung
# ACHN renal = tested on: ACHN renal
# M14 melanoma = tested on: M14 melanoma
# COLO 205 colon = tested on: COLO 205 colon
# UACC-62 melanoma = tested on: UACC-62 melanoma
# HL-60(TB) leukemia = tested on: HL-60(TB) leukemia
# SF-268 CNS = tested on: SF-268 CNS
# OVCAR-3 ovarian = tested on: OVCAR-3 ovarian
# PC-3 prostate = tested on: PC-3 prostate
# RXF 393 renal = tested on: RXF 393 renal
# MOLT-4 leukemia = tested on: MOLT-4 leukemia
# NCI-H460 lung = tested on: NCI-H460 lung
# MDA-MB-435 = tested on: MDA-MB-435
# HS 578T breast = tested on: HS 578T breast
# NCI-H522 lung = tested on: NCI-H522 lung
# OVCAR-4 ovarian = tested on: OVCAR-4 ovarian
# SK-MEL-5 melanoma = tested on: SK-MEL-5 melanoma
# HCT-116 colon = tested on: HCT-116 colon
# OVCAR-5 ovarian = tested on: OVCAR-5 ovarian
# MALME-3M melanoma = tested on: MALME-3M melanoma
# MDA-MB-231 breast = tested on: MDA-MB-231 breast
# 786-0 renal = tested on: 786-0 renal
# SNB-19 CNS = tested on: SNB-19 CNS
# K-562 leukemia = tested on: K-562 leukemia
# SN12C renal = tested on: SN12C renal
# SF-295 CNS = tested on: SF-295 CNS
# BT-549 breast = tested on: BT-549 breast
# SK-MEL-28 melanoma = tested on: SK-MEL-28 melanoma
# HOP-62 NSCLC = tested on: HOP-62 NSCLC
# A498 renal = tested on: A498 renal
# MCF7 breast = tested on: MCF7 breast
# SF-539 CNS = tested on: SF-539 CNS
# DU-145 prostate = tested on: DU-145 prostate
# SW-620 colon = tested on: SW-620 colon
smiles,measurement,setting,value
COc1ccc(/C=C/C(=O)c2c(O)ccc3c(C)c(C(=O)O)oc23)cc1,GI50,IGROV1 ovarian,> 100 µM
same,TGI,IGROV1 ovarian,> 100 µM
same,GI50,CCRF-CEM leukemia,40.3 µM
same,TGI,CCRF-CEM leukemia,> 100 µM
same,GI50,TK-10 renal,> 100 µM
same,TGI,TK-10 renal,> 100 µM
same,GI50,T-47D breast,64.7 µM
same,TGI,T-47D breast,> 100 µM
same,GI50,OVCAR-8 ovarian,61.3 µM
same,TGI,OVCAR-8 ovarian,> 100 µM
same,GI50,LOX IMVI melanoma,35.6 µM
same,TGI,LOX IMVI melanoma,> 100 µM
same,GI50,A549 NSCLC,91.9 µM
same,TGI,A549 NSCLC,> 100 µM
same,GI50,HCC-2998 colon,36.7 µM
same,TGI,HCC-2998 colon,> 100 µM
same,GI50,UO-31 renal,> 100 µM
same,TGI,UO-31 renal,> 100 µM
same,GI50,KM12 colon,> 100 µM
same,TGI,KM12 colon,> 100 µM
same,GI50,NCI-H23 lung,74.2 µM
same,TGI,NCI-H23 lung,> 100 µM
same,GI50,CAKI-1 renal,63.2 µM
same,TGI,CAKI-1 renal,> 100 µM
same,GI50,SK-OV-3 ovarian,> 100 µM
same,TGI,SK-OV-3 ovarian,> 100 µM
same,GI50,EKVX NSCLC,> 100 µM
same,TGI,EKVX NSCLC,> 100 µM
same,GI50,U251 CNS,33.2 µM
same,TGI,U251 CNS,> 100 µM
same,GI50,HCT-15 colon,28.2 µM
same,TGI,HCT-15 colon,> 100 µM
same,GI50,NCI/ADR-RES ovarian,61.9 µM
same,TGI,NCI/ADR-RES ovarian,> 100 µM
same,GI50,UACC-257 melanoma,84.9 µM
same,TGI,UACC-257 melanoma,> 100 µM
same,GI50,HT29 colon,> 100 µM
same,TGI,HT29 colon,> 100 µM
same,GI50,SR leukemia,19.2 µM
same,TGI,SR leukemia,64.4 µM
same,GI50,NCI-H226 lung,45.1 µM
same,TGI,NCI-H226 lung,> 100 µM
same,GI50,ACHN renal,> 100 µM
same,TGI,ACHN renal,> 100 µM
same,GI50,M14 melanoma,> 100 µM
same,TGI,M14 melanoma,> 100 µM
same,GI50,COLO 205 colon,63.4 µM
same,TGI,COLO 205 colon,> 100 µM
same,GI50,UACC-62 melanoma,55 µM
same,TGI,UACC-62 melanoma,> 100 µM
same,GI50,HL-60(TB) leukemia,35.5 µM
same,TGI,HL-60(TB) leukemia,> 100 µM
same,GI50,SF-268 CNS,42.3 µM
same,TGI,SF-268 CNS,> 100 µM
same,GI50,OVCAR-3 ovarian,58.3 µM
same,TGI,OVCAR-3 ovarian,> 100 µM
same,GI50,PC-3 prostate,66 µM
same,TGI,PC-3 prostate,> 100 µM
same,GI50,RXF 393 renal,55.5 µM
same,TGI,RXF 393 renal,> 100 µM
same,GI50,MOLT-4 leukemia,31 µM
same,TGI,MOLT-4 leukemia,> 100 µM
same,GI50,NCI-H460 lung,34 µM
same,TGI,NCI-H460 lung,> 100 µM
same,GI50,MDA-MB-435,50.5 µM
same,TGI,MDA-MB-435,> 100 µM
same,GI50,HS 578T breast,39.7 µM
same,TGI,HS 578T breast,> 100 µM
same,GI50,NCI-H522 lung,33.9 µM
same,TGI,NCI-H522 lung,> 100 µM
same,GI50,OVCAR-4 ovarian,> 100 µM
same,TGI,OVCAR-4 ovarian,> 100 µM
same,GI50,SK-MEL-5 melanoma,46.4 µM
same,TGI,SK-MEL-5 melanoma,> 100 µM
same,GI50,HCT-116 colon,49.2 µM
same,TGI,HCT-116 colon,> 100 µM
same,GI50,OVCAR-5 ovarian,> 100 µM
same,TGI,OVCAR-5 ovarian,> 100 µM
same,GI50,MALME-3M melanoma,94.6 µM
same,TGI,MALME-3M melanoma,> 100 µM
same,GI50,MDA-MB-231 breast,44.7 µM
same,TGI,MDA-MB-231 breast,> 100 µM
same,GI50,786-0 renal,90.3 µM
same,TGI,786-0 renal,> 100 µM
same,GI50,SNB-19 CNS,64.9 µM
same,TGI,SNB-19 CNS,> 100 µM
same,GI50,K-562 leukemia,36.2 µM
same,TGI,K-562 leukemia,> 100 µM
same,GI50,SN12C renal,27.5 µM
same,TGI,SN12C renal,> 100 µM
same,GI50,SF-295 CNS,35.1 µM
same,TGI,SF-295 CNS,> 100 µM
same,GI50,BT-549 breast,73.7 µM
same,TGI,BT-549 breast,> 100 µM
same,GI50,SK-MEL-28 melanoma,> 100 µM
same,TGI,SK-MEL-28 melanoma,> 100 µM
same,GI50,HOP-62 NSCLC,89.9 µM
same,TGI,HOP-62 NSCLC,> 100 µM
same,GI50,A498 renal,14.9 µM
same,TGI,A498 renal,67.7 µM
same,GI50,MCF7 breast,28.1 µM
same,TGI,MCF7 breast,> 100 µM
same,GI50,SF-539 CNS,35.6 µM
same,TGI,SF-539 CNS,> 100 µM
same,GI50,DU-145 prostate,> 100 µM
same,TGI,DU-145 prostate,> 100 µM
same,GI50,SW-620 colon,56.3 µM
same,TGI,SW-620 colon,> 100 µM
